Results on seven compounds are retold here after article PMC10788915, “Fragment Merging, Growing, and Linking Identify New Trypanothione Reductase Inhibitors for Leishmaniasis” (Journal of Medicinal Chemistry, 2024).

Read-outs that look alike come from different tables or passages of the source.

The subject of data set [1] is human THP-1-derived macrophages. In words: Cytotoxicity assay on human THP-1-derived macrophages (MTT). The data set is classed as cell-based. To be noted: for CC50: 72 h, MTT, read-out: human THP-1-derived macrophage CC50 ± SE (95% CI). As for the experimental part: (§1) To assess the cytotoxicity of compounds on mammalian macrophages, we tested all the compounds against both human leukemia monocyte cell line (THP-1 cells, ATCC) differentiated into macrophages by treatment with 40 ng/mL of phorbol myristate acetate (PMA; Sigma) for 48 h and peritoneal exudate macrophages harvested from Balb/c mice. […] Cell viability was evaluated using the MTT assay, and the concentration of the compound that produced a 50% reduction of cell viability in treated culture cells with respect to untreated ones (CC50) was determined by GraphPad Prism 5.0 (GraphPad Software Inc., San Diego, USA). […] The selectivity index for each compound was calculated as the ratio of cytotoxicity (CC50) in macrophages cells to activity (IC50) against Leishmania axenic amastigotes. The experiments were performed in triplicate, and two independent experiments were conducted.

The subject of data set [2] is primary murine macrophages. The experiment in a line: Cytotoxicity assay on primary murine macrophages (MTT). The format is cell-based, Balb/c mice. The conditions noted are these: Balb/c peritoneal macrophages, 72 h, read-out: primary murine macrophage CC50 ± SE (95% CI). As for the experimental part:
as §1

The target in data set [3] is T1, Leishmania infantum TR (LiTR) (Leishmania infantum, UniProt A4HSF7).
T1 construct: The TbTR and LiTR genes were subcloned in a pET28b vector; 6-His (cleaved yes); made in house; host or cells: E. coli BL21(DE3), pET28b
The experiment in a line: LiTR enzymatic inhibition assay (NADPH oxidation at 340 nm). To be noted: for LiTR residual activity % / remaining activity at 10 µM: compound at 10 μM. The format is biochemical. As for the experimental part: (§2) Enzymatic inhibition assays were performed in 50 mM HEPES pH 7.4, 40 mM NaCl at 25 °C using a JASCO V650 spectrophotometer equipped with a JASCO EHC 716 Peltier element to ensure controlled temperature. The first experiment was carried out using 50 nM LiTR, 10 or 100 μM compound to be tested, 150 μM trypanothione (trypanothione disulfide purchased from Bachem), and 100 μM NADPH (tetrasodium salt, purchased from Calbiochem). The best inhibitor candidates were then tested at concentrations ranging from 1 nM to 250 μM to determine the IC50. Assays were initiated upon addition of 100 μM NADPH to 50 nM LiTR or hGR (human glutathione reductase purchased from Sigma-Aldrich) in the presence of different concentration of compounds and 150 μM trypanothione. For both experiments, the oxidation of NADPH was followed as a decrease in absorbance at 340 nm. For each concentration of compound, the initial velocity of the NADPH oxidation was used to determine the percentage of LiTR activity with respect to that in the absence of any compound. The IC50 was determined upon fitting the residual activity of TR as a dose–response logistic equation defined as ymin + (ymax – ymin)/(1 + (x/IC50)^slope). […] The Ki was determined graphically upon linear fitting of data points for each trypanothione concentration. Data analysis was performed with QtiPlot 0.9.8.9 svn 2288, and graphs were made with Matplotlib.
(§3) Figure S3. Inhibition assay of LiTR (red) and hGR (grey) with compounds 5-6, 9-10 and 14.
(§4) Enzymatic assays were carried out at 25°C on a JASCO V650 spectrophotometer equipped with a JASCO EHC716 Peltier unit. Compound concentrations used during the experiments range from 1 […]
(§5) higher than 30 µM and 20 µM, respectively. Briefly, 50 nM LiTR or hGR (Sigma Aldrich) were mixed in 50 mM HEPES pH 7.4, 40 mM NaCl with each compound and 150 µM trypanothione or glutathione. After 3-minute incubation at 25°C, the measurement was initiated upon addition of 100 µM NADPH. The oxidation of NADPH was followed as a decrease in absorbance at 340 nm. Each initial velocity of LiTR enzymatic reaction with the compounds was expressed as a percentage of residual activity with respect to that in the absence of compound. Each data point is the mean of two measurements. The IC50 was determined upon fitting the data as a dose response logistic equation defined by the Kaleidagraph software as ymin+(ymax-ymin)/(1+(x/IC50)^slope).
(§6) (1 picture or pasted object on this page, not shown here)

In data set [4] the test system is L. infantum axenic amastigotes. The experiment in a line: In vitro inhibition of axenic amastigote growth (MTT). To be noted: 72 h, read-out: axenic amastigote EC50 ± SE (95% CI). The data set is classed as cell-based, Leishmania infantum. As for the experimental part:
Axenic amastigote growth inhibition was evaluated using L. infantum strain (MHOM/TN/80/IPT1, WHO international reference strain). Axenic amastigote cultures were obtained as described previously with modifications.[45] Promastigotes were grown in Schneider’s Drosophila medium (SIGMA) containing 10% heat-inactivated fetal calf serum (FCS)(GIBCO-BRL) and 2% gentamicin (50 mg/L)(Sigma) in 25 cm^2 flasks at 22 °C. After 4–5 days, the parasites were adjusted to 1 × 10^6 parasites/mL in axenic medium MAA/20 consisting of modified medium 199 (Gibco BRL) with Hanks’ salts supplemented with 0.5% tryptic soy broth (Sigma), 0.01 mM bathocuproine disulfonic acid, 3 mM L-cysteine, 15 mM D-glucose, 5 mM L-glutamine, 4 mM NaHCO3, 0.023 mM bovine hemin, and 25 mM HEPES to a final pH of 6.5 and supplemented with 20% pretested FCS, and axenic amastigotes were obtained by shifting the incubation conditions: 198 μL of suspension was seeded in triplicate in 96-well flat bottom microplates and incubated at 37 °C, 5% CO2 for 48 h in order to allow the axenization. The amastigote cells were visualized under the light microscope to confirm transformation. Then, 2 μL of the selected compounds with varying concentrations were added: 100, 50, 25, 12.5, 6.25, 3.12, 1.56, 0.8, 0.4, 0.2, 0.1, 0.05 μM. […] Each experiment was conducted in triplicate for each drug concentration, and three independent experiments were performed. To estimate the 50% inhibitory concentration (IC50), the (3-[4.5-dimethylthiazol-2-yl]-2.5-diphenyltetrazolium bromide) (MTT) micromethod was used throughout the experiments with modification. After 72 h of incubation, 30 μL of MTT was added to each well, and the plates were further incubated for 3 h. The absorbance at 550 nm was measured with a 96-well scanner. Antileishmanial activity was expressed as the percentage of inhibition in the number of live parasites compared to that in the control (nontreated parasites). % inhibition was calculated as follows: % growth inhibition = [(absorb cell with drug × 100)/absorb cell control] – 100. Results were analyzed by GraphPad Prism 5.0, dose–response curves were obtained and IC50 deduced (GraphPad Software Inc., San Diego, USA).

A short description of data set [5]: Cytotoxicity assay on human THP-1-derived macrophages (MTT). The format is cell-based. The conditions noted are these: human, THP-1 cells differentiated into macrophages with PMA, 72 h, MTT; read-out: human THP-1-derived macrophage CC50 ± SE (95% CI). As for the experimental part: as §1
The nature of data set [6]: Cytotoxicity assay on primary murine macrophages (MTT). To be noted: Balb/c, mouse, primary peritoneal exudate macrophages, read-out: primary murine macrophage CC50 ± SE (95% CI). The format is cell-based, Balb/c mice. As for the experimental part:
as §1

The target in data set [7] is T2, hGR (human glutathione reductase) (Homo sapiens, UniProt P00390).
T2 construct: purchased Sigma-Aldrich
T2 sequence (P00390 44-522): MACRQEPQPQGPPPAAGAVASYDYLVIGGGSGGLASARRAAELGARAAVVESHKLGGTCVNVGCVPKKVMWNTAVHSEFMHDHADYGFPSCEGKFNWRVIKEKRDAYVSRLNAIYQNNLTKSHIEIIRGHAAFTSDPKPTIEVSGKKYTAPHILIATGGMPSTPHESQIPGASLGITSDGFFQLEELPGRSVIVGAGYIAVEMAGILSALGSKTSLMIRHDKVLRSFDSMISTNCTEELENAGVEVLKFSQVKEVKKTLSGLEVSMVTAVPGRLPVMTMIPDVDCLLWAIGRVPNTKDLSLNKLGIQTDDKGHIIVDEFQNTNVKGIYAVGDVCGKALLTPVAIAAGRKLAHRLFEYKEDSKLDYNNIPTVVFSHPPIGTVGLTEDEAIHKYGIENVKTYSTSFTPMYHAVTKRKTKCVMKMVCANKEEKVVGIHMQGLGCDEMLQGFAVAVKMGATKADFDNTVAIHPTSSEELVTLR
The experiment in a line: hGR enzymatic inhibition assay (NADPH oxidation at 340 nm). The format is biochemical. The conditions noted are these: 50 nM hGR, 100 μM NADPH, 25 °C. As for the experimental part: as §2, §3, §4, §5, §6

Data set [8] is described as follows: Solubility observed in the enzymatic assay. The data set is classed as physicochemical. The conditions noted are these: no reliable data at concentrations higher than 30 µM (5) and 20 µM (6). As for the experimental part: as §3, §4, §5, §6
Where [9] appears, read: mean ± SD, n = 3, read-out: LiTR residual activity %.

T1 sequence (A4HSF7 1-491): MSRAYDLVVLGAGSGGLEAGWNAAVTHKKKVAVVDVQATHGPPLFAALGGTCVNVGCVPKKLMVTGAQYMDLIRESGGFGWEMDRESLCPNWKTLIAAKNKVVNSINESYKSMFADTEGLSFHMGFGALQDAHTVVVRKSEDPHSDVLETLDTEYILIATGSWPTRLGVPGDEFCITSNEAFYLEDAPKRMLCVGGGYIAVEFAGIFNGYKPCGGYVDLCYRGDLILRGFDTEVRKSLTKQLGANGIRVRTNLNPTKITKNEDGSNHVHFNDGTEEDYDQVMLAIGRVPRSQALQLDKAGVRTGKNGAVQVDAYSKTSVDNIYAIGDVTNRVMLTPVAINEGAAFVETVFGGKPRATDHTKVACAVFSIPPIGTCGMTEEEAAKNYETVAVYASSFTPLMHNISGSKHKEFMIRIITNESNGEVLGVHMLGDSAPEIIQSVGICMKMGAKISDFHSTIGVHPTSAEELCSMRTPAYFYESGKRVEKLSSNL

With “4-(3,4-Dichlorobenzyl)-N-(4-fluorophenyl)-N-((5-(phenethylcarbamoyl)furan-2-yl)methyl)piperazine-1-carboxamide [Compound 8]”, in data set [1], the “SI = human THP-1-derived macrophage CC50/axenic amastigote EC50” value turned out to be 1.1 and the CC50 was 11.7 ± 1.6 µM. Further, the CC50 in data set [2] stood at 14.4 ± 1.6 µM. The “LiTR residual activity %” value in data set [3] (mean ± SD, n = 3) is recorded as 94.1 ± 4.9 @10 μM %. In addition, the EC50 in data set [4] amounted to 10.3 ± 0.9 µM.
Regarding `O=C(Nc1ccc(F)cc1)N1CCN(CCCc2ccccc2)CC1` [Compound 4, N-(4-Fluorophenyl)-4-(3-phenylpropyl)piperazine-1-carboxamide], in data set [1], the “SI = human THP-1-derived macrophage CC50/axenic amastigote EC50” value amounted to 0.8. Besides, the CC50 at 72 h in data set [5] is 9.6 ± 0.71 µM; in data set [6] it was 12.9 ± 0.9 µM. For the same compound, the remaining activity at 100 µM in data set [3] (compound at 100 μM, mean ± SD, n = 3, read-out: LiTR residual activity %) is 96.7 ± 6.1%. The EC50 in data set [4] (Leishmania infantum) was 11.5 ± 2.1 µM.
On to `O=C(NCCc1ccc(F)cc1)c1ccc(CN(C(=O)N2CCN(CCCN3c4ccccc4Sc4ccc(Cl)cc43)CC2)c2ccc(F)cc2)o1` [Compound 6, 4-(3-(2-Chloro-10H-phenothiazin-10-yl)propyl)-N-((5-((4-fluorophenethyl)carbamoyl)furan-2-yl)methyl)-N-(4-fluorophenyl)piperazine-1-carboxamide], for which the IC50 in data set [7] was found to be 9.6 ± 1.4 µM; in data set [3] (50 nM LiTR, 150 μM trypanothione, 100 μM NADPH, 25 °C) it was 21.7 ± 4.4 µM. Moreover, the “solubility in the enzymatic assay” value in data set [8] is listed as “low solubility”. Besides, in data set [3] (compared to compound 5 (IC50 54.6 μM)), the “gain in LiTR IC50 with respect to 5” value is recorded as “more than 2 fold”. For the same compound, in data set [3] (setting [9]), the remaining activity at 10 µM was 46.9 ± 18%. The EC50 was 13 ± 1.5 µM in data set [4] and 12 ± 1.7 µM in data set [4] (Leishmania infantum).
In the case of `O=C(O)c1ccc(N(Cc2ccc(C(=O)NCCc3ccc(F)cc3)o2)C(=O)N2CCN(CCCc3ccccc3)CC2)cc1` [Compound 11, 4-(N-((5-((4-Fluorophenethyl)carbamoyl)furan-2-yl)methyl)-4-(3-phenylpropyl)piperazine-1-carboxamido)benzoic Acid], the “SI = human THP-1-derived macrophage CC50/axenic amastigote EC50” value in data set [1] is given as >2. The CC50 at 72 h in data set [5] and in data set [6] was > 50 µM throughout. For the same compound, the remaining activity at 10 µM in data set [3] (setting [9]) came out at 74.5 ± 9.3%. Moreover, the EC50 in data set [4] (Leishmania infantum) is 25.6 ± 7.4 µM.
In the case of `O=C(NCCc1ccc(F)cc1)c1ccc(CNC(=O)N2CCN(CCCc3ccccc3)CC2)o1` [Compound 12, N-((5-((4-Fluorophenethyl)carbamoyl)furan-2-yl)methyl)-4-(3-phenylpropyl)piperazine-1-carboxamide], the “SI = human THP-1-derived macrophage CC50/axenic amastigote EC50” value in data set [1] was determined as 2.7. Moreover, the CC50 at 72 h in data set [5] was 37.6 ± 13.8 µM; in data set [6] it was 26.7 ± 4.5 µM. In addition, in data set [3] (setting [9]), the remaining activity at 10 µM came to 74.6 ± 9.3%. The EC50 in data set [4] (Leishmania infantum) is 14.1 ± 1.3 µM.
With `O=C(NCCc1ccc(F)cc1)c1ccc(CNC(=O)N2CCN(Cc3ccc(Cl)c(Cl)c3)CC2)o1` [Compound 13, 4-(3,4-Dichlorobenzyl)-N-((5-((4-fluorophenethyl)carbamoyl)furan-2-yl)methyl)piperazine-1-carboxamide], the “SI = human THP-1-derived macrophage CC50/axenic amastigote EC50” value in data set [1] worked out at 1.9. In addition, the CC50 at 72 h was 21 ± 3.1 µM in data set [5] and 12.6 ± 0.9 µM in data set [6]. The remaining activity at 10 µM in data set [3] (setting [9]) is 89.2 ± 4.9%. Besides, the EC50 in data set [4] (Leishmania infantum) is 11.2 ± 0.7 µM.
For the compound “N-((5-((4-Fluorophenethyl)carbamoyl)furan-2-yl)methyl)-N-(4-fluorophenyl)-4-(3-(2-(trifluoromethyl)-10H-phenothiazin-10-yl)propyl)piperazine-1-carboxamide [Compound 7]”, in data set [1], the “SI = human THP-1-derived macrophage CC50/axenic amastigote EC50” value is given as 1.8 and the CC50 is 23.4 ± 4.6 µM. Moreover, the “LiTR residual activity %” value in data set [3] (mean ± SD, n = 3) is reported as 70.8 ± 5.9 @10 μM %. For the same compound, the EC50 in data set [4] was 13 ± 1.5 µM.

For orientation: CC50 means the concentration at which the toxic effect on the cells reaches its halfway point. The EC50 is the midpoint of the concentration-response curve. In general, IC50 refers to the concentration at which inhibition is half-maximal.
